Among the data in patent US8349827B2, “Substituted dipyrido-pyrimido-diazepine and benzo-pyrido-pyrimido compounds” (ArQule, Inc., priority 2009, dated 2013) are melting point and inhibition values, retold here.

One data set concerns the target ABL T315I (Homo sapiens, UniProt P00519, T315I). Description: ABL Kinase Activity Assay (Elisa), ABL T315I. The data set is classed as biochemical. To be noted: ATP 100 μM, read-out: Abl(T315I) Enzymetic assay (Elisa) % inhibition. The procedure, abridged: (§1)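 Recombinant ABL or ABL T315I (0.089 nM final) preincubated 20 min with compound, then reacted 1 h at room temperature with 100 μM ATP and 128 nM biotinylated AblTide in Tris pH 7.0/MgCl2 buffer. Phosphopeptide captured on streptavidin and detected by anti-phosphotyrosine ELISA with alkaline phosphatase secondary and Attophos fluorescence.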

The test system of the next data set is MDA-MB-231. Put plainly: MTS assay, MDA-MB-231 cells. The data set is classed as cell-based. To be noted: Homo sapiens, 72 hours. Summed up: (§2)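 First, seed 3000 cells per well in low-serum (1% FBS) DMEM and culture 18 h. Next, add compounds prepared at 300× in DMSO and diluted 1:40 in DMEM; incubate 72 h. Finally, add MTS/PMS for 4 h and measure absorbance at 492 nm.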

The next data set deals with DLD-1. Put plainly: MTS assay, DLD-1 cells. The data set is classed as cell-based. To be noted: Homo sapiens, 72 hours. Summed up:
as §2
On the technique in general: Formazan colour is commonly taken as a measure of viable cells.

The subject of the next data set is PACA-2. Put plainly: MTS assay, PACA-2 cells. It counts as cell-based. To be noted: 72 hours. The procedure, abridged: as §2
The subject of a further data set is NCI-H1299. Description: MTS assay, NCI-H1299 cells. It counts as cell-based. To be noted: Homo sapiens, 72 hours. The procedure, abridged:
as §2

The next data set relates to KATO III. Description: MTS assay, KATO III cells. To be noted: Homo sapiens, 72 hours. The data set is classed as cell-based. Summed up: as §2
A further data set concerns the target ABL (Homo sapiens, UniProt P00519). Put plainly: ABL Kinase Activity Assay (Elisa), ABL. The data set is classed as biochemical. To be noted: ATP 100 μM, read-out: Abl Enzymetic assay (Elisa) % inhibition. The procedure, abridged: as §1
Another data set deals with PC-3. Description: MTS assay, PC-3 cells. The data set is classed as cell-based. To be noted: Homo sapiens, 72 hours. The procedure, abridged: as §2

SMILES strings stand for the structures. Counter-ions that a name gives are not always drawn.

Regarding `CN(C)CCCCCNc1ncc2c(n1)-c1cccnc1Nc1cnccc1-2` (as salt: TFA) [Example 48, N′-9H-dipyrido[2,3-b:4′,3′-f]pyrimido[4,5-d]azepin-2-yl-N,N-dimethylpentane-1,5-diamine], the melting point (in general, the temperature, or range, at which the solid turns liquid) lay within 133 to 136 °C.

Compound `c1ccc(CNc2ncc3c(n2)-c2cccnc2Nc2cnccc2-3)nc1` (as salt: TFA) [Example 49, N-(pyridin-2-ylmethyl)-9H-dipyrido[2,3-b:4′,3′-f]pyrimido[4,5-d]azepin-2-amine] registered a melting point of 253 to 255 °C.

In turn, `CN(C)CCCNc1ncc2c(n1)-c1cccnc1Nc1cnccc1-2` (as salt: TFA) [Example 50, N′-9H-dipyrido[2,3-b:4′,3′-f]pyrimido[4,5-d]azepin-2-yl-N,N-dimethylpropane-1,3-diamine] came in with a melting point of over 253 °C.

Compound `CN(C)CCCCNc1ncc2c(n1)-c1cccnc1Nc1cnccc1-2` (as salt: TFA) [Example 51, N′-9H-dipyrido[2,3-b:4′,3′-f]pyrimido[4,5-d]azepin-2-yl-N,N-dimethylbutane-1,4-diamine] came in with a melting point of 154 to 156 °C.

In turn, `c1cnc2c(c1)-c1nc(NC3CCNCC3)ncc1-c1ccncc1N2` (as salt: TFA) [Example 59, N-piperidin-4-yl-9H-dipyrido[2,3-b:4′,3′-f]pyrimido[4,5-d]azepin-2-amine] returned a melting point of 189 to 191 °C.

On to `c1cnc2c(c1)-c1nc(NCC3CCNCC3)ncc1-c1ccncc1N2` (as salt: TFA) [Example 60, N-(piperidin-4-ylmethyl)-9H-dipyrido[2,3-b:4′,3′-f]pyrimido[4,5-d]azepin-2-amine], for which the melting point is 151 to 153 °C.

`Clc1cccc(CNc2ncc3c(n2)-c2cccnc2Nc2cnccc2-3)c1` [Example 1, N-(3-chlorobenzyl)-9H-dipyrido[2,3-b:4′,3′-f]pyrimido[4,5-d]azepin-2-amine] displayed a melting point of 195 to 196 °C. For the same compound, the inhibition – broadly, the share of the control response that was lost under treatment – at 10 µM at ABL T315I is 80 to 100%. The compound further yielded an inhibition at 10 µM in the data set on MDA-MB-231 of under 50%. The compound further had an inhibition at 10 µM in the data set on DLD-1 of 50 to 79%. This compound also returned an inhibition at 10 µM with PACA-2 of under 50%. In the data set on NCI-H1299, this compound registered an inhibition at 10 µM of 50 to 79%. In addition, the inhibition at 10 µM with KATO III was 80 to 100%. Also, on ABL, the inhibition at 10 µM lay within 80 to 100%.

Regarding `Fc1ccc(CNc2ncc3c(n2)-c2cccnc2Nc2cnccc2-3)c(F)c1` [Example 2, N-(2,4-difluorobenzyl)-9H-dipyrido[2,3-b:4′,3′-f]pyrimido[4,5-d]azepin-2-amine], the melting point lay in the range of 264 to 266 °C. Also, at ABL T315I, the inhibition at 10 µM was 80 to 100%. The compound further returned an inhibition at 10 µM in the data set with MDA-MB-231 of under 50%. Further, the inhibition at 10 µM in the data set on DLD-1 is under 50%. The same compound registered an inhibition at 10 µM in the data set on PACA-2 of under 50%. Also, the inhibition at 10 µM with NCI-H1299 was in the range of 50 to 79%. Moreover, the inhibition at 10 µM in the data set on KATO III was in the range of 50 to 79%. For the same compound, the inhibition at 10 µM on ABL is 80 to 100%.

As for `Cc1cccc2c(CCNc3ncc4c(n3)-c3cccnc3Nc3cnccc3-4)c[nH]c12` [Example 52, N-[2-(7-methyl-1H-indol-3-yl)ethyl]-9H-dipyrido[2,3-b:4′,3′-f]pyrimido[4,5-d]azepin-2-amine], the melting point is 153 to 155 °C. In addition, the inhibition at 10 µM at ABL T315I was in the range of 80 to 100%. The inhibition at 10 µM with MDA-MB-231 is under 50%. In the data set with DLD-1, this compound gave an inhibition at 10 µM of 50 to 79%. This compound registered an inhibition at 10 µM with PACA-2 of under 50%. In the data set with PC-3, this compound registered an inhibition at 10 µM of under 50%. The inhibition at 10 µM in the data set with NCI-H1299 lay in the range of 50 to 79%. Further, in the data set with KATO III, the inhibition at 10 µM fell in the range of 80 to 100%. For the same compound, the inhibition at 10 µM at ABL lay in the range of 80 to 100%.

In the case of `Nc1ccc(-c2ncc3c(n2)-c2cccnc2Nc2cnccc2-3)cc1` [Example 53, 4-(9H-dipyrido[2,3-b:4′,3′-f]pyrimido[4,5-d]azepin-2-yl)aniline], the melting point is over 300 °C. The inhibition at 10 µM with MDA-MB-231 is under 50%. Further, the inhibition at 10 µM in the data set with DLD-1 is under 50%. This compound displayed an inhibition at 10 µM with PACA-2 of under 50%. In the data set with PC-3, this compound came in with an inhibition at 10 µM of under 50%. Also, in the data set with NCI-H1299, the inhibition at 10 µM is under 50%. In the data set on KATO III, the inhibition at 10 µM is under 50%.

`c1ccc(-c2ncc3c(n2)-c2cccnc2Nc2cnccc2-3)cc1` [Example 54, 2-phenyl-9H-dipyrido[2,3-b:4′,3′-f]pyrimido[4,5-d]azepine] showed a melting point of over 300 °C. The compound further yielded an inhibition at 10 µM in the data set with MDA-MB-231 of under 50%. Also, in the data set with DLD-1, the inhibition at 10 µM was under 50%. The compound also returned an inhibition at 10 µM in the data set on PC-3 of under 50%. The same compound showed an inhibition at 10 µM with NCI-H1299 of under 50%. In addition, in the data set on KATO III, the inhibition at 10 µM is under 50%.

The compound `c1cnc2c(c1)-c1nc(NCc3ccnc4[nH]ccc34)ncc1-c1ccncc1N2` [Example 55, N-(1H-pyrrolo[2,3-b]pyridin-4-ylmethyl)-9H-dipyrido[2,3-b:4′,3′-f]pyrimido[4,5-d]azepin-2-amine] registered a melting point of 208 to 211 °C. The inhibition at 10 µM in the data set with MDA-MB-231 is under 50%. The same compound gave an inhibition at 10 µM in the data set with DLD-1 of 80 to 100%. In the data set with PACA-2, this compound yielded an inhibition at 10 µM of 80 to 100%. The inhibition at 10 µM in the data set with PC-3 is 80 to 100%. Moreover, in the data set on NCI-H1299, the inhibition at 10 µM is 50 to 79%. Further, in the data set with KATO III, the inhibition at 10 µM was in the range of 80 to 100%.

`OCCc1cccc(Nc2ncc3c(n2)-c2cccnc2Nc2cnccc2-3)c1` [Example 56, 2-[3-(9H-dipyrido[2,3-b:4′,3′-f]pyrimido[4,5-d]azepin-2-ylamino)phenyl]ethanol] returned a melting point of 208 to 211 °C. The same compound had an inhibition at 10 µM in the data set with MDA-MB-231 of under 50%. This compound gave an inhibition at 10 µM in the data set on DLD-1 of 50 to 79%. The compound further had an inhibition at 10 µM with PACA-2 of 80 to 100%. This compound also came in with an inhibition at 10 µM with PC-3 of under 50%. The same compound displayed an inhibition at 10 µM in the data set with NCI-H1299 of 50 to 79%. In addition, in the data set with KATO III, the inhibition at 10 µM lay within 80 to 100%.

In the case of `Cc1cccc2c(CCNc3ncc4c(n3)-c3cccnc3Nc3ccccc3-4)c[nH]c12` [Example 65, N-[2-(7-methyl-1H-indol-3-yl)ethyl]-9H-pyrido[2,3-b]pyrimido[4,5-d][1]benzazepin-2-amine], the melting point was 188 to 190 °C. Besides, the inhibition at 10 µM with MDA-MB-231 fell in the range of 50 to 79%. The compound further showed an inhibition at 10 µM in the data set on DLD-1 of 80 to 100%. This compound gave an inhibition at 10 µM with PACA-2 of 80 to 100%. The same compound had an inhibition at 10 µM in the data set on PC-3 of 80 to 100%. The inhibition at 10 µM with NCI-H1299 fell in the range of 80 to 100%. In the data set with KATO III, this compound gave an inhibition at 10 µM of 80 to 100%.

`c1ccc2c(c1)Nc1ncccc1-c1nc(NCc3ccnc4[nH]ccc34)ncc1-2` [Example 66, N-(1H-pyrrolo[2,3-b]pyridin-4-ylmethyl)-9H-pyrido[2,3-b]pyrimido[4,5-d][1]benzazepin-2-amine]: the melting point lay in the range of 285 to 288 °C. The compound also returned an inhibition at 10 µM with MDA-MB-231 of 50 to 79%. Also, in the data set with DLD-1, the inhibition at 10 µM was in the range of 50 to 79%. This compound displayed an inhibition at 10 µM in the data set on PACA-2 of 80 to 100%. The compound further yielded an inhibition at 10 µM in the data set with PC-3 of 50 to 79%. This compound also came in with an inhibition at 10 µM in the data set with NCI-H1299 of 50 to 79%. The inhibition at 10 µM in the data set with KATO III is 80 to 100%.
